Measurements reported in patent US20170000133A1, “BENZOXABOROLE FUNGICIDES” (SYNGENTA PARTICIPATIONS AG, priority 2013, published 2017).

Tests used:
[1] = tested on: Puccinia recondita f. sp. tritici; test: Puccinia recondita f. sp. tritici / wheat / leaf disc preventative (brown rust); assay type: in vivo; settings: foliar, wheat leaf segments cv Kanzler, inoculated 1 day after application, assessed 7-9 days after application, read-out: disease control
Excerpt: 3. Puccinia recondita f. sp. tritici/Wheat/Leaf Disc Preventative (Brown Rust): Wheat leaf segments cultivated variety (cv) Kanzler were placed on agar in 24-well plates and sprayed with formulated test compound diluted in water at an application rate of 200 ppm. The leaf disks were inoculated with a spore suspension of the fungus 1 day after application.

[2] = tested on: Monographella nivalis (Microdochium nivale); test: Monographella nivalis (Microdochium nivale) / liquid culture (foot rot cereals); assay type: cell-based; settings: PDB potato dextrose broth, 24° C., 4-5 days after application, read-out: disease control (inhibition of growth determined photometrically)
[3] = tested on: Gaeumannomyces graminis; test: Gaeumannomyces graminis / liquid culture (take-all of cereals); assay type: cell-based; settings: PDB potato dextrose broth, 24° C., 4-5 days after application, read-out: disease control (inhibition of growth determined photometrically)
Procedure, shortened: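 Growth inhibition measured photometrically 4–5 days post-application, following incubation at 24 °C. Test compound, applied from DMSO at 200 ppm, mixed with fungal mycelial fragments in potato dextrose broth.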

[4] = tested on: Glomerella lagenarium (Colletotrichum lagenarium); test: Glomerella lagenarium (Colletotrichum lagenarium) / liquid culture (anthracnose); assay type: cell-based; settings: Colletotrichum orbiculare, PDB potato dextrose broth, 24° C., 3-4 days after application, read-out: disease control (inhibition of growth measured photometrically)
Procedure, shortened: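 Compound was applied at 200 ppm from DMSO solution, then potato dextrose broth carrying cryostored fungal spores was added. Growth inhibition was measured by photometry after 3-4 days of incubation at 24° C.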

[5] = tested on: Botryotinia fuckeliana (Botrytis cinerea); test: Botryotinia fuckeliana (Botrytis cinerea) / liquid culture (gray mould); assay type: cell-based; settings: Vogels broth, 24° C., 3-4 days after application, read-out: disease control (inhibition of growth determined photometrically)
Description: 10. Botryotinia fuckeliana (Botrytis cinerea)/Liquid Culture (Gray Mould): Conidia of the fungus from cryogenic storage were directly mixed into nutrient broth (Vogels broth). After placing a DMSO solution of test compound into a 96-well microtiter plate at an application rate of 200 ppm, the nutrient broth containing the fungal spores was added. The test plates were incubated at 24° C. and the inhibition of growth was determined photometrically 3-4 days after application.

[6] = tested on: Plasmopara viticola; test: whole plant or invertebrate; assay type: in vivo; settings: foliar, read-out: disease control
[7] = tested on: Thanatephorus cucumeris (Rhizoctonia solani); test: Thanatephorus cucumeris (Rhizoctonia solani) / liquid culture (foot rot, damping-off); assay type: cell-based; settings: PDB potato dextrose broth, 24° C., 3-4 days after application, read-out: disease control (inhibition of growth determined photometrically)
Procedure, shortened: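 Photometric growth-inhibition readout taken 3-4 days after application, with cultures incubated at 24 °C. Test compound was applied at 200 ppm from DMSO solution to R. solani mycelial fragments in PDB.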

[8] = tested on: Pythium ultimum; test: Pythium ultimum / liquid culture (seedling damping off); assay type: cell-based; settings: Globisporangium ultimum; 200 ppm; potato dextrose broth, 24° C., 2-3 days after application; read-out: disease control (inhibition of growth determined photometrically)
[9] = tested on: Mycosphaerella arachidis (Cercospora arachidicola); test: Mycosphaerella arachidis (Cercospora arachidicola) / liquid culture (early leaf spot); assay type: cell-based; settings: PDB potato dextrose broth, 24° C., 4-5 days after application, read-out: disease control (inhibition of growth determined photometrically)
Procedure, shortened: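 Test compound, applied at 200 ppm from DMSO solution, was combined with spore-containing potato dextrose broth. Photometric growth inhibition was scored after 4-5 days at 24° C.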

[10] = tested on: Mycosphaerella graminicola (Septoria tritici); test: Mycosphaerella graminicola (Septoria tritici) / liquid culture (Septoria blotch); assay type: cell-based; settings: Zymoseptoria tritici, PDB potato dextrose broth, 24° C., 4-5 days after application, read-out: disease control (inhibition of growth determined photometrically)
Procedure, shortened: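 Growth inhibition was read photometrically 4-5 days after application, following incubation at 24° C of fungal conidia in potato dextrose broth over test compound (200 ppm, from DMSO solution) in microtiter plates.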

[11] = tested on: Phytophthora infestans; test: whole plant or invertebrate; assay type: in vivo; settings: in Solanum lycopersicum, foliar, read-out: disease control
[12] = tested on: Fusarium culmorum; test: microbe, parasite or virus in culture; assay type: cell-based; settings: read-out: disease control (inhibition of growth determined visually)

Row | SMILES | pest or weed control at 200 ppm [1] [%] | inhibition at 200 ppm [2] [%] | inhibition at 200 ppm [3] [%] | inhibition at 200 ppm [4] [%] | inhibition at 200 ppm [5] [%] | pest or weed control at 200 ppm [6] [%] | inhibition at 200 ppm [7] [%] | inhibition at 200 ppm [8] [%] | inhibition at 200 ppm [9] [%] | inhibition at 200 ppm [10] [%] | pest or weed control at 200 ppm [11] [%] | melting point [°C] | inhibition at 200 ppm [12] [%]
1 | O=C(OCCc1ccc(Cl)cc1Cl)c1ccc2c(c1)B(O)OC2 [Compound 312] | ≥ 80 | ≥ 80 | ≥ 80 | – | – | – | – | – | – | – | – | – | –
2 | CCCCCCCOC(=O)c1ccc2c(c1)B(O)OC2 [Compound 317] | ≥ 80 | ≥ 80 | ≥ 80 | ≥ 80 | ≥ 80 | ≥ 80 | ≥ 80 | ≥ 80 | ≥ 80 | ≥ 80 | – | – | –
3 | CC#CCOC(=O)c1ccc2c(c1)B(O)OC2 [Compound 323] | – | ≥ 80 | ≥ 80 | – | ≥ 80 | ≥ 80 | ≥ 80 | ≥ 80 | ≥ 80 | ≥ 80 | ≥ 80 | 154 to 155 | ≥ 80
4 | CCCCCCCCCCOC(=O)c1ccc2c(c1)B(O)OC2 [Compound 331] | ≥ 80 | – | – | – | – | – | ≥ 80 | ≥ 80 | ≥ 80 | ≥ 80 | – | – | –
5 | COC(=O)C(OC(=O)c1ccc2c(c1)B(O)OC2)c1ccccc1 (stereo not shown) [Compound 349] | ≥ 80 | ≥ 80 | ≥ 80 | ≥ 80 | – | ≥ 80 | – | ≥ 80 | – | – | – | – | –
6 | C[Si](C)(C)COC(=O)c1ccc2c(c1)B(O)OC2 [Compound 367] | ≥ 80 | ≥ 80 | ≥ 80 | ≥ 80 | – | ≥ 80 | ≥ 80 | ≥ 80 | – | ≥ 80 | – | – | –
7 | O=C(OCCc1ccc(Cl)cc1Cl)c1cc2c(cc1F)COB2O [Compound 370] | ≥ 80 | ≥ 80 | ≥ 80 | – | – | – | ≥ 80 | ≥ 80 | – | ≥ 80 | – | – | –
8 | O=C(OCCc1c(Cl)cccc1Cl)c1ccc2c(c1)B(O)OC2 [Compound 373] | – | ≥ 80 | ≥ 80 | – | ≥ 80 | ≥ 80 | – | – | – | ≥ 80 | – | – | ≥ 80
9 | O=C(OCC1CCSCC1)c1cc2c(cc1F)COB2O [Compound 380] | ≥ 80 | ≥ 80 | – | ≥ 80 | – | ≥ 80 | ≥ 80 | ≥ 80 | ≥ 80 | – | – | – | –
10 | CCCCCCCCCCOC(=O)c1cc2c(cc1F)COB2O [Compound 391] | ≥ 80 | – | ≥ 80 | – | – | – | ≥ 80 | ≥ 80 | ≥ 80 | – | – | – | –
11 | O=C(OCC#Cc1ccccc1)c1cc2c(cc1F)COB2O [Compound 422] | – | ≥ 80 | ≥ 80 | – | ≥ 80 | – | ≥ 80 | ≥ 80 | ≥ 80 | ≥ 80 | – | – | ≥ 80
12 | O=C(OCc1cccc(F)c1)c1cc2c(cc1F)COB2O [Compound 434] | – | ≥ 80 | ≥ 80 | ≥ 80 | ≥ 80 | ≥ 80 | ≥ 80 | ≥ 80 | ≥ 80 | ≥ 80 | – | – | –
13 | O=C(OCc1ccsc1)c1cc2c(cc1F)COB2O [Compound 441] | ≥ 80 | ≥ 80 | – | ≥ 80 | – | ≥ 80 | ≥ 80 | ≥ 80 | ≥ 80 | ≥ 80 | – | 128 to 130 | ≥ 80
